Columns and labels:
[1] = system: glucocorticoid receptor (GR) binding to DNA; test: Gel mobility shift assay of GR binding to GRE DNA, A549 nuclear extracts; type: cell-based, human; details: 300 nM ISIS 15534 compared with 1 μM dexamethasone
Procedure: Nuclear extracts and gel mobility shift assays were conducted as previously described (Li et al. 1991) with slight modifications (Zuo et al. 1998). Briefly, A549 cells were cultured in 60 mm dishes and treated with ISIS 15521 or ISIS 15534 antisense oligonucleotides (Zuo et al. 1998) three dishes per group. Six hours after treatment, the cells were collected, washed with ice-cold PBS, and incubated in buffer A (10 mM HEPES, pH 7.9, 10 mM KCl, 0.1 mM EDTA, 0.1 mM EGTA, 1 mM DTT, 0.5 mM PMSF) at 4° C. for 15 minutes. The cells were then lysed by adding 25 μl 10% NP-40 and vigorous vortexing for 10 seconds. Nuclei were precipitated by centrifugation, resuspended in ice-cold buffer B (20 mM HEPES, pH 7.9, 0.4 M NaCl, 1 mM EDTA, 1 mM EGTA, 1 mM DTT, 1 mM PMSF), incubated at 4° C. for 60 minutes with gentle shaking, and then subjected to centrifugation at 4° C. for 5 minutes. The supernatant was collected, aliquoted, and stored at -80° C. […]
Referring to FIG. 3A, the inhibition of PP5 expression enhances glucocorticoid receptor binding to DNA. […] The relative light units of the cell extract were calculated as an average of three independent experiments, performed in triplicate, and presented as relative luciferase activity with error bars indicating SD. […]

A549 cells = test: [3H]-thymidine incorporation (DNA synthesis) in A549 cells; type: cell-based, human; details: 300 nM
Procedure: Cells were pulse-labeled with [^3 H]-thymidine for 5 hours at intervals over the next five days. Cells were lysed and [^3 H]-thymidine incorporation (indicative of DNA synthesis) was determined by liquid scintillation counting.
At timed intervals during the next 5 days, cells were pulse-labeled with [^3 H]-thymidine (0.5 μCi/ml) for 5 hours. […] The results given are the mean of three independent experiments.

ISIS 15534: chimeric PP5 antisense oligonucleotide, P=O wings, P=S deoxy gap; GGGCCCTATTGCTTGAGTGG, SEQ ID NO: 12 (sugars by position and backbone not given here; chimeric, phosphodiester wings, phosphorothioate deoxy gap)
GR/GRE gel shift [1]: more pronounced shift | Decrease in [3H]-thymidine incorporation compared to control (A549 cells; day 2): approximately 85% | Decrease in [3H]-thymidine incorporation compared to control (A549 cells; day 3): ~88% | Decrease in [3H]-thymidine incorporation compared to control (A549 cells; day 4): ~62% | [3H]-thymidine incorporation relative to untreated cells (A549 cells; day 5): approximately equivalent in treated and untreated cells

From patent publication US6235891A, “Glucocorticoid receptor agonist and decreased PP5” (South Alabama Medical Science Foundation, priority 1999, dated 2001)
